How the values were obtained:
[1] = Drug release from poloxamer gel (diffusion cell, dialysis membrane, radiolabelled drugs); format: physicochemical; settings: body temperature vs 4° C.; data not shown
Source text: The poloxamer gel could act as a sustained-drug release system which prolong the local microbicidal activity of the incorporated active agents. We have studied the release of antiviral agents (AZT, ddC, ddi, foscarnet, acyclovir) from our poloxamer gel formulations using radiolabelled drugs and a diffusion cell made of two compartments separated by a dialysis membrane. […] This is explained by the creation of large openings in the intermicellar network of the gel at high temperature which in turn increase the release of the incorporated active agents.

human cervical cells = test: Viability of human cervical cells with nonoxynol-9, free or in poloxamer gel; format: cell-based
Method: FIG. 2 represents the viability of human cervical cells following incubation with different concentrations of nonoxynol-9 either as free drug or incorporated into the poloxamer gel (19.5% w/w).

[2] = tested on: vaginal and cervical mucosae of rabbits; test: In vivo tolerance/toxicity, vaginal and cervical mucosae, daily intravaginal application; parameters: species or system New Zealand rabbits; settings: once daily intravaginal for two weeks; nonoxynol-9 dose 125 mg
Method: (§1) Studies have been performed to evaluate the tolerance and toxicity of the poloxamer 407 gel (19.5% w/w) when applied locally once daily for two weeks to the vaginal and cervical mucosae of New Zealand rabbits. The gel was applied in its fluid state to allow a good penetration into the irregularly shaped surfaces of the mucosae. Biopsies of the vaginal and cervical mucosae were performed on days 0, 4, 7 and 14 for histological examinations. […] Such toxicity induced by nonoxynol-9 might favour the entry of pathogens.

[3] = tested on: cervical mucosa of rabbits; test: Histopathology of cervix after daily intravaginal application; format: in vivo, New Zealand rabbits; settings: once daily intravaginal for two weeks
Method: as §1

[4] = background statement; cited from earlier work

Row | Molecule | release of drugs from the poloxamer gel [1] | other results
1 | Cc1cn([C@H]2C[C@H](N=[N+]=[N-])[C@@H](CO)O2)c(=O)[nH]c1=O [AZT] | increased at body temperature when compared to 4 °C | 
2 | Nc1nc2c(ncn2COCCO)c(=O)[nH]1 [acyclovir] | increased at body temperature when compared to 4 °C | 
3 | Nc1ccn([C@H]2CC[C@@H](CO)O2)c(=O)n1 [ddC, 2'-3'-dideoxycytidine] | increased at body temperature when compared to 4 °C | 
4 | O=c1[nH]cnc2c1ncn2[C@H]1CC[C@@H](CO)O1 [ddi, 2'-3'-dideoxyinosine] | increased at body temperature when compared to 4 °C | 
5 | O=C(O)P(=O)(O)O [foscarnet] | increased at body temperature when compared to 4 °C | 
6 | nonoxynol-9 |  | toxicity to human cervical cells (viability) (human cervical cells; different concentrations of nonoxynol-9, free or in gel): highly toxic to the human cervical cells in a dose-dependent manner; concentration at which toxicity starts (human cervical cells; free nonoxynol-9, human cervical cells): 150 µg/mL; toxicity to vaginal and cervical mucosae [2]: very toxic as evidenced by the presence of epithelial disruption, irritation, necrosis and bleeding; histopathology of cervical mucosa [3]: large accumulation of eosinophiles in the sub-mucosa and induce a major loss of integrity of the epithelial cells; local inflammation and ulcerations [4]: induce local inflammation and ulcerations

— patent US6068851A, “Formulation for use in the prevention of pathogen induced diseases including HIV and HSV” (Infectio Recherche, Inc., priority 1999, dated 2000)
